Laboratory results taken from the supplement of paper PMC6965134.
± gives the standard deviation of the averaged measurements.

Assay: TIMS collisional cross section (CCS, N2) of the lipid ion; higher = larger ion cross section
Conditions: ionization mode: positive, one isomer drawn

Structure (SMILES) | TIMS collisional cross section (sample type: Liver) | TIMS collisional cross section (sample type: plasma) | TIMS collisional cross section (sample type: HeLa)
CCCCCC/C=C\CCCCCCCC(=O)OC[C@H](COC(=O)CCCCCCCCC/C=C\CCCCCCCC)OC(=O)CCCCCCCCCCCCCCCCC [TG 16:1_18:0_20:1] (ion (formula + adduct): [C57H106O6+NH4] 1+) | 328.2 Å² |  | 
CCCCC/C=C\C/C=C\C/C=C\C/C=C\CCCC(=O)OC[C@@H](COC(=O)CCCCCCC/C=C\CCCCCC)OC(=O)CCCCCCCCCCCCCCCCC [TG 16:1_18:0_20:4] (ion (formula + adduct): [C57H100O6+NH4] 1+) | 324.7 Å² |  | 
CCCCCC/C=C\CCCCCCCC(=O)OC[C@H](COC(=O)CCCCCCCCCCCCCCCCCCCCC)OC(=O)CCCCCCCCCCCCCCCCC [TG 16:1_18:0_22:0] (ion (formula + adduct): [C59H112O6+NH4] 1+) |  | 335.9 Å² | 
CC/C=C\C/C=C\C/C=C\C/C=C\C/C=C\C/C=C\CCC(=O)OC[C@@H](COC(=O)CCCCCCC/C=C\CCCCCC)OC(=O)CCCCCCCCCCCCCCCCC [TG 16:1_18:0_22:6] (ion (formula + adduct): [C59H100O6+NH4] 1+) |  |  | 327.7 Å²
CCCCCC/C=C\CCCCCCCC(=O)OC[C@H](COC(=O)CCCCCCC/C=C\CCCCCCCC)OC(=O)CCCCCCC/C=C\CCCCCCCC [TG 16:1_18:1_18:1] (ion (formula + adduct): [C55H100O6+NH4] 1+) |  | 320.1 Å² | 320 Å²
CCCCC/C=C\C/C=C\CCCCCCCC(=O)OC[C@@H](COC(=O)CCCCCCC/C=C\CCCCCC)OC(=O)CCCCCCC/C=C\CCCCCCCC [TG 16:1_18:1_18:2] (ion (formula + adduct): [C55H98O6+NH4] 1+) | 317.35 ± 0.35 Å² | 317.4 ± 0.42 Å² | 318.2 Å²
CCCCCC/C=C\CCCCCCCC(=O)OC[C@H](COC(=O)CCCCCCCCC/C=C\CCCCCCCC)OC(=O)CCCCCCC/C=C\CCCCCCCC [TG 16:1_18:1_20:1] (ion (formula + adduct): [C57H104O6+NH4] 1+) | 327 Å² |  | 326 Å²
CCCCC/C=C\C/C=C\CCCCCCCCCC(=O)OC[C@@H](COC(=O)CCCCCCC/C=C\CCCCCC)OC(=O)CCCCCCC/C=C\CCCCCCCC [TG 16:1_18:1_20:2] (ion (formula + adduct): [C57H102O6+NH4] 1+) | 324.7 Å² |  | 
CCCCC/C=C\C/C=C\C/C=C\C/C=C\CCCC(=O)OC[C@@H](COC(=O)CCCCCCC/C=C\CCCCCC)OC(=O)CCCCCCC/C=C\CCCCCCCC [TG 16:1_18:1_20:4] (ion (formula + adduct): [C57H98O6+NH4] 1+) | 323.5 Å² |  | 
CC/C=C\C/C=C\C/C=C\C/C=C\C/C=C\CCCCCC(=O)OC[C@@H](COC(=O)CCCCCCC/C=C\CCCCCC)OC(=O)CCCCCCC/C=C\CCCCCCCC [TG 16:1_18:1_22:5] (ion (formula + adduct): [C59H100O6+NH4] 1+) |  | 327.7 Å² | 325.9 Å²
CCCCC/C=C\C/C=C\CCCCCCCC(=O)OC[C@@H](COC(=O)CCCCCCC/C=C\CCCCCC)OC(=O)CCCCCCC/C=C\C/C=C\CCCCC [TG 16:1_18:2_18:2] (ion (formula + adduct): [C55H96O6+NH4] 1+) | 315.45 ± 0.49 Å² |  | 
CC/C=C\C/C=C\C/C=C\CCCCCCCC(=O)OC[C@@H](COC(=O)CCCCCCC/C=C\CCCCCC)OC(=O)CCCCCCC/C=C\C/C=C\CCCCC [TG 16:1_18:2_18:3] (ion (formula + adduct): [C55H94O6+NH4] 1+) | 312.8 Å² | 314.1 Å² | 
CCCCC/C=C\C/C=C\CCCCCCCCCCCC(=O)OC[C@@H](COC(=O)CCCCCCC/C=C\CCCCCC)OC(=O)CCCCCCC/C=C\CCCCCCCCC [TG 16:1_19:1_22:2] (ion (formula + adduct): [C60H108O6+NH4] 1+) |  |  | 332.3 Å²
CCCCC/C=C\C/C=C\C/C=C\C/C=C\CCCC(=O)OC[C@@H](COC(=O)CCCCCCC/C=C\CCCCCC)OC(=O)CCC/C=C\C/C=C\C/C=C\C/C=C\CCCCC [TG 16:1_20:4_20:4] (ion (formula + adduct): [C59H96O6+NH4] 1+) |  |  | 323 Å²

Next, values leading:

TIMS collisional cross section (sample type: Liver) | TIMS collisional cross section (sample type: plasma) | TIMS collisional cross section (sample type: HeLa) | Structure (SMILES)
 |  | 328.2 Å² | CC/C=C\C/C=C\C/C=C\C/C=C\C/C=C\CCCCCC(=O)OC[C@@H](COC(=O)CCCCCCC/C=C\CCCCCC)OC(=O)CCC/C=C\C/C=C\C/C=C\C/C=C\CCCCC [TG 16:1_20:4_22:5] (ion (formula + adduct): [C61H98O6+NH4] 1+)
 |  | 332.4 Å² | CC/C=C\C/C=C\C/C=C\C/C=C\C/C=C\C/C=C\CCC(=O)OC[C@@H](COC(=O)CCCCCCC/C=C\CCCCCC)OC(=O)CCCCC/C=C\C/C=C\C/C=C\C/C=C\C/C=C\CC [TG 16:1_22:5_22:6] (ion (formula + adduct): [C63H98O6+NH4] 1+)
 |  | 329.5 Å² | CC/C=C\C/C=C\C/C=C\C/C=C\C/C=C\C/C=C\CCC(=O)OC[C@@H](COC(=O)CCCCCCC/C=C\CCCCCC)OC(=O)CC/C=C\C/C=C\C/C=C\C/C=C\C/C=C\C/C=C\CC [TG 16:1_22:6_22:6] (ion (formula + adduct): [C63H96O6+NH4] 1+)
322.4 Å² | 322.7 Å² | 322.1 Å² | CCCCCCC/C=C\CCCCCCCC(=O)O[C@@H](COC(=O)CCCCCCC/C=C\CCCCCCCC)COC(=O)CCCCCCCCCCCCCCCC [TG 17:0_17:1_18:1] (ion (formula + adduct): [C55H102O6+NH4] 1+)
327.7 Å² | 327.4 Å² | 327.3 Å² | CCCCCCCC/C=C\CCCCCCCC(=O)OC[C@@H](COC(=O)CCCCCCCCCCCCCCCC)OC(=O)CCCCCCCCCCCCCCCCC [TG 17:0_18:0_18:1] (ion (formula + adduct): [C56H106O6+NH4] 1+)
 | 325.5 Å² |  | CCCCCCCC/C=C\CCCCCCCC(=O)OC[C@@H](COC(=O)CCCCCCCCCCCCCCCC)OC(=O)CCCCCCC/C=C\CCCCCCCC [TG 17:0_18:1_18:1] (ion (formula + adduct): [C56H104O6+NH4] 1+)
322.9 Å² | 323.2 Å² |  | CCCCC/C=C\C/C=C\CCCCCCCC(=O)OC[C@@H](COC(=O)CCCCCCCCCCCCCCCC)OC(=O)CCCCCCC/C=C\CCCCCCCC [TG 17:0_18:1_18:2] (ion (formula + adduct): [C56H102O6+NH4] 1+)
331.2 Å² | 332 Å² | 330.7 Å² | CCCCCCCC/C=C\CCCCCCCCCC(=O)OC[C@@H](COC(=O)CCCCCCCCCCCCCCCC)OC(=O)CCCCCCC/C=C\CCCCCCCC [TG 17:0_18:1_20:1] (ion (formula + adduct): [C58H108O6+NH4] 1+)
 | 329.3 Å² |  | CCCCC/C=C\C/C=C\CCCCCCCCCC(=O)OC[C@@H](COC(=O)CCCCCCCCCCCCCCCC)OC(=O)CCCCCCC/C=C\CCCCCCCC [TG 17:0_18:1_20:2] (ion (formula + adduct): [C58H106O6+NH4] 1+)
338.8 Å² | 338.7 Å² |  | CCCCCCCC/C=C\CCCCCCCC(=O)O[C@H](COC(=O)CCCCCCCCCCCCCCCC)COC(=O)CCCCCCCCCCCCCCCCCCCCC [TG 17:0_18:1_22:0] (ion (formula + adduct): [C60H114O6+NH4] 1+)
326.4 Å² |  |  | CCCCC/C=C\C/C=C\C/C=C\C/C=C\CCCC(=O)OC[C@@H](COC(=O)CCCCCCCCCCCCCCCC)OC(=O)CCCCCCC/C=C\C/C=C\CCCCC [TG 17:0_18:2_20:4] (ion (formula + adduct): [C58H100O6+NH4] 1+)
325.6 Å² |  |  | CCCCCCC/C=C\CCCCCCCC(=O)OC[C@H](COC(=O)CCCCCCC/C=C\CCCCCCCC)OC(=O)CCCCCCCCCCCCCCCCC [TG 17:1_18:0_18:1] (ion (formula + adduct): [C56H104O6+NH4] 1+)
 |  | 323.2 Å² | CCCCCCC/C=C\CCCCCCCC(=O)OC[C@H](COC(=O)CCCCCCC/C=C\CCCCCCCC)OC(=O)CCCCCCC/C=C\CCCCCCCC [TG 17:1_18:1_18:1] (ion (formula + adduct): [C56H102O6+NH4] 1+)
 | 320.6 Å² | 320.8 Å² | CCCCC/C=C\C/C=C\CCCCCCCC(=O)OC[C@@H](COC(=O)CCCCCCC/C=C\CCCCCCC)OC(=O)CCCCCCC/C=C\CCCCCCCC [TG 17:1_18:1_18:2] (ion (formula + adduct): [C56H100O6+NH4] 1+)
328.8 Å² |  |  | CCCCCCC/C=C\CCCCCCCC(=O)OC[C@H](COC(=O)CCCCCCCCCCCCCCCCCC)OC(=O)CCCCCCC/C=C\CCCCCCCC [TG 17:1_18:1_19:0] (ion (formula + adduct): [C57H106O6+NH4] 1+)
 |  | 332 Å² | CCCCC/C=C\C/C=C\C/C=C\CCCCCCCCC(=O)OC[C@@H](COC(=O)CCCCCCC/C=C\CCCCCCC)OC(=O)CCCCCCC/C=C\CCCCCCCC [TG 17:1_18:1_22:3] (ion (formula + adduct): [C60H106O6+NH4] 1+)
 |  | 328.8 Å² | CC/C=C\C/C=C\C/C=C\C/C=C\C/C=C\CCCCCC(=O)OC[C@@H](COC(=O)CCCCCCC/C=C\CCCCCCC)OC(=O)CCCCCCC/C=C\CCCCCCCC [TG 17:1_18:1_22:5] (ion (formula + adduct): [C60H102O6+NH4] 1+)
 |  | 328.2 Å² | CC/C=C\C/C=C\C/C=C\C/C=C\C/C=C\C/C=C\CCC(=O)OC[C@@H](COC(=O)CCCCCCC/C=C\CCCCCCC)OC(=O)CCCCCCC/C=C\CCCCCCCC [TG 17:1_18:1_22:6] (ion (formula + adduct): [C60H100O6+NH4] 1+)
317.5 Å² | 318.3 Å² |  | CCCCC/C=C\C/C=C\CCCCCCCC(=O)OC[C@@H](COC(=O)CCCCCCC/C=C\CCCCCCC)OC(=O)CCCCCCC/C=C\C/C=C\CCCCC [TG 17:1_18:2_18:2] (ion (formula + adduct): [C56H98O6+NH4] 1+)
